Laboratory results as given in patent US6555372B1, “Composition for enhancing cellular immunogenicity comprising alpha-glycosylceramides” (Kirin Beer Kabushiki Kaisha, priority 1997, dated 2003).

Columns and labels:
[1] = test system: Mouse T lymphoma EL-4 cells; assay: Therapeutic effect of treated tumor cells in EL-4 liver metastasis model mice; format: in vivo
Description: Mouse T lymphoma EL-4 cells (4×10^5 cells/mouse) were implanted intravenously into the tail of BDF1 mice (female, 6 weeks of age, Japan SLC, Inc.), 6 animals in one group, to prepare cancer-bearing mice. The days of tumor implantation was set to be day 0. On the same day, a vehicle (0.1% DMSO), KRN 7000 (100 ng/ml) or AGL-583 (100 ng/ml) was added to EL-4 cells which had been inoculated into a fresh medium, in the same manner as in Pharmacological Test 1 above. One day after the start of incubation, cells of EL-4/V, EL-4/KRN and EL-4/583 cultured in the presence of the vehicle, KRN 7000 and AGL-583, respectively, were recovered and washed twice with the medium, after which the recovered cells were immunized intravenously into the tail of the cancer-bearing mice at 1×10^5 cells/mouse. The resulting antitumor effect was compared.
EL-4 implanted mice generally died in about 30 days owing to the tumor formation and growth in several organs, particularly in the liver. Therefore, antitumor effect was evaluated by observing the survival period of cancer-bearing hosts.

[2] = test system: B16, EL-4, Lewis lung carcinoma, Colon 26, L1210 and Meth A mouse tumor cells; assay: Effect of α-glycosylceramide on tumorigenicity of tumor cells; format: in vivo; conditions: six mouse tumor cell lines cultured 1 day with 100 ng/ml, implanted i.v. into C57BL/6 or BALB/c mice; FIG. 4
Excerpt: Six kinds of mouse tumor cells, i.e., three kinds of C57BL/6 mouse-derived tumor cells, i.e., murine melanoma B16 cells (Dainippon Pharmaceutical Co., Ltd.), mouse T lymphoma EL-4 cells (Dainippon Pharmaceutical Co., Ltd.) and mouse Lewis lung carcinoma cells (Dainippon Pharmaceutical Co., Ltd.), and three kinds of BALB/c-mouse derived tumor cells, i.e., mouse colon cancer cell Colon 26 (Japanese Foundation for Cancer Research), mouse leukemia L1210 cells (Japanese Foundation for Cancer Research) and mouse fibrosarcoma Meth A cells (Japanese Foundation for Cancer Research) were cultured with or without an addition of a vehicle (0.1% DMSO) or KRN 7000 (100 ng/ml) for one day as described in Pharmacological Tests above. The resulting tumor cells were washed twice with a medium, suspended again in a fresh medium and implanted intravenously into the tail of corresponding mice. […]
The tumor cells implanted intravenously into the tail formed metastasized nodules in various organs, particularly in the liver or lung, and ultimately killed the animals. Accordingly, the effect of the tumor cells on tumorigenicity (a rate of tumor formation, the ability to form tumor burden) was evaluated by observing the survival period.

[3] = EL-4-bearing BDF1 mice immunized i.v. on day 1 with 1×10^5 EL-4 cells cultured 1 day with 100 ng/ml compound, vs control mice with tumor only, FIG. 2

Row | SMILES | antitumor effect [1, 3] | survival period [1, 3] | tumorigenicity of treated tumor cells [2] | treated mice survived for a long term ([1]; EL-4-bearing BDF1 mice immunized i.v. with 1×10^5 EL-4 cells cultured 1 day with 100 ng/ml compound, 6 animals per group) [%]
1 | CCCCCCCCCCCCCCCCCCCCCCCCCC(=O)N[C@@H](CO[C@@H]1O[C@H](CO)[C@H](O)[C@H](O)[C@H]1O)[C@H](O)[C@H](O)CCCCCCCCCCCCCC [AGL-583, reference compound] | no evident antitumor effect was observed | not prolonged at all |  | 
2 | CCCCCCCCCCCCCCCCCCCCCCCCCC(=O)N[C@@H](CO[C@H]1O[C@H](CO)[C@H](O)[C@H](O)[C@H]1O)[C@H](O)[C@H](O)CCCCCCCCCCCCCC [KRN 7000, (2S,3S,4R)-1-(α-D-galactopyranosyloxy)-2-hexacosanoylamino-3,4-octadecanediol] |  | markedly prolonged | diminished or completely abolished | 33.3
